Data set [1] deals with T1, BromoTag-Brd2 (Homo sapiens, UniProt O60885+P40337, L387A).
T1 construct: comprising residues 368-440 of human Brd4; Brd2 (endogenous protein, fusion partner in the same polypeptide); eGFP-P2A (upstream marker in the knock-in cassette) (N, cleaved yes); expressed in transfected cells; host or cells: HEK293, heterozygous CRISPR knock-in at the endogenous BRD2 locus
The data set is described as follows: Recovery (washout) assay. The class given is cell-based. As for the experimental part:
Recovery Assay. A recovery assay was performed using 200 nM AGB1 over a 72 h period. This was performed in the genotype verified heterozygous BromoTag-Brd2 HEK293 cell line. Heterozygous BromoTag-Brd2 HEK293 cells were plated at a density of 5×10^5 cells per well of a six-well plate a day before initiating the recovery assay. On the experiment day, cells were washed with PBS before fresh DMEM was applied to contain either DMSO or AGB1 200 nM. During treatment, cells were kept at 37° C., 5% CO2, and 95% humidity. After three hours, the recovery and vehicle control condition cells were rewashed with PBS before fresh DMEM was applied absent 200 nM AGB1 or DMSO. As for the positive control condition, they were left with 200 nM AGB1 for the remainder of the treatment time.
Western Blotting. All cells were harvested on ice with RIPA lysis, and extraction buffer (ThermoFisher Scientific, 89901) supplemented with protease inhibitor cocktail (Merck, 11697498001) and Benzonase® Nuclease (Sigma, E1014) before being store at −20° C. prior to use. Total protein quantity was determined using the BCA protein assay (#23225, Pierce, Rockford, Illinois). Protein concentration was determined using the BCA assay (ThermoFisher Scientific, 23225). Samples were then prepared and loaded onto NuPAGE™ 4-12% Bis-Tris Midi gels (ThermoFisher Scientific, WG1403A), followed by the transfer of the proteins onto nitrocellulose membranes (EMD Millipore). The membranes were blocked for 1 h prior to incubation with the primary antibodies using 5% Milk TBST. Membranes were probed for Brd2 (Abcam, Ab139690, 1:1000), Brd3 (Abcam, Ab50818, 1:4000), Brd4 (Abcam, Ab128874, 1:1000) or our polyclonal Brd4^BD2 L387A antibody. […] All western blots were analysed for band intensities using Image Lab from Bio-Rad (LI-COR, Biosciences). The data extracted from these blots were then plotted and analysed using Prism (v. 8.2.0, GraphPad).

The target of data set [2] is T2, BRD4 (O60885), BromoTag N-term (Homo sapiens, UniProt O60885+P40337, L387A).
T2 construct: comprising residues 368-440 of human Brd4; expressed in transfected cells
The data set is described as follows: Degradation of BromoTag'ed BRD4 by AGB1. The class given is cell-based. An excerpt:
(§1) Degradation of a variety of target proteins. […] We performed CRISPR knock-in of the BromoTag, as described, into the endogenous loci of five additional proteins. […] The target proteins of Table 6 are all different, are all known to have different cellular roles and function, intracellular expression, and distinctive turnover rates within cells.

The nature of data set [3]: Plasma stability. The class given is in vitro ADME. As to conditions: mouse plasma, 37° C., over 1 h. As for the experimental part:
Plasma Stability. Plasma stability studies were outsourced and undertaken by Shanghai ChemPartner Co., Ltd. Buffer preparation: A solution of 0.05 M sodium phosphate and 0.07 M NaCl buffer at pH 7.4 was made by dissolving 14.505 g/L Na2HPO4·12H2O, 1.483 g/L NaH2PO4·2H2O and 4.095 g/L NaCl in deionized water and the pH adjusted with phosphoric acid. Plasma preparation: Frozen mouse plasma was thawed by placing at 37° C. quickly. The thawed plasma was centrifuged at 3,000 rpm for 8 min to remove clots and the supernatant was pooled to be used as the plasma in the experiment. The plasma (pH 7.4-8.0) was stored on ice until used. […] Plasma and spiking solutions were pre-warmed at 37° C. for 5 min, then 10 μL of pre-warmed spiking solution B were added into the wells designated for all the time points (5, 15, 30, 45, 60 min). For 0-min, 400 μL of acetonitrile containing internal standards (Imipramine, Glipizide) were added to the wells of 0-min plate and then 90 μL of plasma was added. For the time points (0, 5, 15, 30, 45, 60 min), 90 μL of pre-warmed plasma was added to start timing. At 5, 15, 30, 45, 60 min, 400 μL of acetonitrile containing internal standard (Imipramine, Glipizide) were added to the wells of corresponding plates, respectively, to stop the reaction. […] Data was analysed with Microsoft Excel.

Data set [4] addresses T3, MCM4 (P33991), BromoTag N-term (Homo sapiens, UniProt O60885+P40337, L387A).
T3 construct: comprising residues 368-440 of human Brd4; MCM4 (endogenous protein, fusion partner in the same polypeptide); expressed in transfected cells
The data set is described as follows: Degradation of BromoTag'ed MCM4 by AGB1. The data set is classed as cell-based.
Text: as §1

Data set [5] has as its target T4, VPS34/PK3C3 (Q8NEB9), BromoTag N-term (Homo sapiens, UniProt O60885+P40337, L387A).
T4 construct: comprising residues 368-440 of human Brd4; VPS34/PK3C3 (endogenous protein, fusion partner in the same polypeptide); expressed in transfected cells
The data set is described as follows: Degradation of BromoTag'ed VPS34/PK3C3 by AGB1. The data set is classed as cell-based.
Text: as §1

The target of data set [6] is T5, MCM2 (P49736), BromoTag N-term (Homo sapiens, UniProt O60885+P40337, L387A).
T5 construct: comprising residues 368-440 of human Brd4; MCM2 (endogenous protein, fusion partner in the same polypeptide); expressed in transfected cells
Briefly: Degradation of BromoTag'ed MCM2 by AGB1. The class given is cell-based.
Text: as §1

Some results are limits rather than exact numbers.

T1 sequence (P40337 whole entry, other chains not shown, the tested form may be a part): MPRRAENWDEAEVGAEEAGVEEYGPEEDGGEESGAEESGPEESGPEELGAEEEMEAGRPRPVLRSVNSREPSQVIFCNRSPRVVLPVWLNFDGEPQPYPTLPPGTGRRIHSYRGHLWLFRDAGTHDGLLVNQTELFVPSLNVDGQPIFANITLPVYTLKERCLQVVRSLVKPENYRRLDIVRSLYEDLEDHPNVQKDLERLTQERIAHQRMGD
T5 sequence (P40337 whole entry, other chains not shown, the tested form may be a part): as above
T4 sequence (P40337 whole entry, other chains not shown, the tested form may be a part): as above
T2 sequence (P40337 whole entry, other chains not shown, the tested form may be a part): as above
T3 sequence (P40337 whole entry, other chains not shown, the tested form may be a part): as above

Consider `CC[C@@H](C(=O)OCCOCCOCCOCC(=O)N[C@H](C(=O)N1C[C@H](O)C[C@H]1C(=O)NCc1ccc(-c2scnc2C)cc1)C(C)(C)C)[C@@H]1N=C(c2ccc(Cl)cc2)c2c(sc(C)c2C)-n2c(C)nnc21` (single isomer, unassigned) [AGB1 (46)], for which the “time after washout at which BromoTag-Brd2 protein levels recover” value in data set [1] (200 nM for 3 h, then washout) was found to be 24 h. Moreover, the “BromoTag-Brd2 level after 3 h treatment” value in data set [1] (200 nM, 3 h) is recorded as “complete depletion”. The “on-target degradation without washout” value in data set [1] (200 nM, no washout) was “complete and durable on-target degradation for up to 72 h”. Also, the Dmax in data set [2] was more than 95%; in data set [4], more than 99%; in data set [5] it was more than 99%; in data set [6] it was more than 95%. The pDC50 was 7.9 in data set [2] (BromoTag'ed BRD4, N-term tag); 8.1 in data set [4] (BromoTag'ed MCM4, N-term tag); 8.0 in data set [5] (BromoTag'ed VPS34/PK3C3, N-term tag); 8.0 in data set [6] (BromoTag'ed MCM2, N-term tag). For the same compound, the “plasma stability, levels remaining” value in data set [3] is recorded as “no significant changes”.

These data come from patent US20250130239A1, “PROTEIN DEGRADER” (University of Dundee, priority 2021, published 2025).
